Literature values, collected in patent publication US20250114486A1, “MARKED FATTY ACID DERIVATIVE, PRECURSOR COMPOUND THEREOF, AND USE THEREOF IN CONTRAST AGENT” (BEIJING NORMAL UNIVERSITY, priority 2022, published 2025).
Read-outs that look alike come from different tables or passages of the source.

Conditions: rats, reference 4, cited from earlier work

Structure (SMILES): CC(CCCCCCCCCCCCc1ccc([123I])cc1)CC(=O)O (centres unmarked) [[^123I]BMIPP]
- Heart-to-Lungs ratio (30 min after injection): 3.16
- Heart-to-Blood ratio (30 min post-injection): 2.27
- absolute myocardial uptake value (30 min post-injection): 3.63 % ID/g
- Heart-to-Liver ratio (60 min after injection): 2.22
- Heart-to-Lungs ratio (60 min after injection): 3.52
- Heart-to-Blood ratio (60 min post-injection): 2.51
- absolute myocardial uptake value (60 min post-injection): 4.26 % ID/g
- Heart-to-Liver ratio (240 min after injection): 2.39
- Heart-to-Lungs ratio (240 min after injection): 2.49
- Heart-to-Blood ratio (240 min post-injection): 2.01
- absolute myocardial uptake value (240 min post-injection): 2.27 % ID/g
